Reference: paper PMC7475896, “Ruthenium(II) and Iridium(III) Complexes as Tested Materials for New Anticancer Agents” (Materials, 2020)
Converted amounts (≈) assume the structure as drawn. “Also recorded” adds a separate entry of the source.

Legend:
[1] = lipophilicity (log P) determination; type: physicochemical
Method: (§1) Determination of log P values, and studies on the interactions of ruthenium(II) (1), iridium(III) complexes (2, 3) with CT-DNA, HSA and GSH, were performed according to the previous procedure published in the paper.

[2] = catalytic oxidation of NADH to NAD+ (UV-Vis); type: biochemical; conditions: complex 1 µM, NADH 100 µM, 50% MeOH/50% H2O, 37 °C, 9 h
Method: The reaction of analyzed complexes (1 µM) with NADH (100 µM) in 50% MeOH/50% H2O (V:V) was examined by UV-Vis spectroscopy at 37 °C after various time intervals (0.5–9 h). The turnover number (TON) was calculated from the difference in NADH concentration after 9 h divided by the concentration of analyzed iridium complexes. The concentration of NADH was obtained using the extinction coefficient ε339 = 6220 M^−1cm^−1.
Figure 12 UV-Vis spectra for the catalytic oxidation of NADH (100 μM) to NAD^+ in the presence of complexes (1 μM) over a 9 h period in 50% MeOH/50% H2O (V:V) (inset: wavelength absorbance changes from 315-360 nm).

[3] = tested on: myelomonocytic leukaemia (MV-4-11) cell line; assay: in vitro cytotoxicity, MTT assay, MV-4-11; type: cell-based
Method: (§2) The cytotoxicity of the investigated complexes 1–3 was determined by microculture with sulforhodamine B SRB (all adherent cells) and MTT ([3-(4,5-dimethyl(thiazol-2-yl) -2,5-diphenyltetrazoliumbromide)]) (for cells in suspension (leukemia cells)) assays with the following three tumor cell lines: colorectal adenoma (LoVo), myelomonocytic leukemia (MV-4-11), and breast adenocarcinoma (MCF-7), as well as a healthy mouse fibroblast (BALB/3T3) cell line. The cytotoxicity of the compounds was measured using the methods described previously. […] The results for cisplatin, used as a test control, were presented in the form of IC50 value (this is the concentration of the compound causing the inhibition of cell proliferation of 50% of the cell population). The results were calculated from 2 to 3 independent experiments.

[4] = glutathione deactivation experiment (Ellman method); type: biochemical; conditions: after 28 h incubation
Method: as §1
Comparing similar data of cell viability and IC50 for both iridium(III) complexes with GSH deactivation results, some correlation was observed.

[5] = biological target: T1, human serum albumin (HSA) (Homo sapiens, UniProt P02768); assay: HSA conformation by CD spectroscopy; type: binding; conditions: free HSA 56%
T1 construct: purchased Sigma-Aldrich Chemie GmbH (Steinheim, Germany)
T1 sequence (P02768 25-609): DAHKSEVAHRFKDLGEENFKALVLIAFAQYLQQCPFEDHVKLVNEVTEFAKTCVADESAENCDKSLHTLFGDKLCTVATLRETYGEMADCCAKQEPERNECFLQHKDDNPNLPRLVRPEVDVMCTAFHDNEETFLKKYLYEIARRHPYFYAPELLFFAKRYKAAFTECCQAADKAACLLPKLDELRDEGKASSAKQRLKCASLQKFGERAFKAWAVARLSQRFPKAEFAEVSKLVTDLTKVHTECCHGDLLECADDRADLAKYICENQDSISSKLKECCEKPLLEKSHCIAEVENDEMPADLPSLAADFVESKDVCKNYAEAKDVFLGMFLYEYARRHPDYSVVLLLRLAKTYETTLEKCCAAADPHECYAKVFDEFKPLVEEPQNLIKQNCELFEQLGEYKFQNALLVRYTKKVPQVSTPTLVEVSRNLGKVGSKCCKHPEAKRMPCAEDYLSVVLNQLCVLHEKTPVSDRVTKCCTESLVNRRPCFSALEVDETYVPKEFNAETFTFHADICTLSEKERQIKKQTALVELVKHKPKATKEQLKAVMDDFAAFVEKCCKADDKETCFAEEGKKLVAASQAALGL
Method: as §1
(§3) Because plasma albumins can interfere with anticancer compounds and change their biological activity, especially their cytotoxicity effectiveness, it is important to obtain insight into interactions of the analyzed complexes with HSA as a plasma protein. The UV-Vis spectra of HSA with increasing amounts of complexes show increasing of HSA absorbance without any shift (Figure 13 a–c). […] To detect any changes of the microenvironment or the conformations of HSA caused by the analyzed complexes, CD spectroscopy was used (Figure 13e,f). […] The noticeable, spectral changes indicate a partial unfolding of the protein structure, leading to the loss of its stability.
(§4) Figure 13 Changes in UV-Vis absorption spectra of HSA (2 × 10^−5 M) in Tris-HCl/NaCl buffer upon addition of 1 (a), 2 (b) and 3 (c) in different molar ratio and CD spectra of HSA incubated with 1 (d), 2 (e) and 3 (f) in different molar ratio.

CT-DNA = assay: DNA melting test by 3D CD; type: binding; conditions: 100 μM CT-DNA, Tris-HCl/NaCl pH 7.2; free CT-DNA Tm 55.2 ± 0.7 °C
Method: The melting profiles of DNA/complex mixtures were recorded on a Jasco J-815 spectropolarimeter (Kettenbrückengasse, Austria) equipped with a CDF-426S/15 Peltier temperature controller. CD melting experiments were performed using 100 μM CT DNA concentration, in the absence and presence of 100 equivalents of complexes (in Tris-HCl/NaCl buffer, pH 7.2). CD melting were performed at 5 °C/min heating rate in the 35–95 °C temperature range. Each spectrum was recorded in the 220–300 nm wavelength range, averaged over three scans and subtracting the buffer baseline. After each temperature change, the system was left to equilibrate for 3 min. From 3D data, we selected the proper wavelength (256 nm) and obtained a classic 2D melting profile (fraction folded vs. temperature). The melting temperatures (Tm) were mathematically calculated by using the curve fitting function in Origin 2020 software (OriginLab, Northampton, MA, USA). Tm values represent the melting temperature of the DNA with and without complexes.
To solve the problem of the mode of iridium-DNA binding, covalent and non-covalent, DNA melting experiments were conducted. […] The Tm of the tested solution was determined as the transition midpoint of the melting curve by monitoring the maximum of the ellipticity and absorbance as a function of temperature ranging from 35 to 95 °C. […]

[6] = biological target: T1, human serum albumin (HSA); assay: HSA binding by UV-Vis spectroscopy; conditions: HSA 2 × 10^−5 M in Tris-HCl/NaCl buffer
Method: as §1, §3, §4

[7] = tested on: breast adenocarcinoma (MCF-7) cell line; assay: in vitro cytotoxicity, SRB assay, MCF-7; type: cell-based; conditions: concentration of 10 μg/mL
Method: as §2

[8] = tested on: normal mouse fibroblast (BALB/3T3) cell line; assay: in vitro cytotoxicity, SRB assay, normal BALB/3T3; type: cell-based; conditions: for Cell viability [%] BALB/3T3: compound concentration 10 μg/mL, normal cell line
Method: as §2

[9] = tested on: normal mouse fibroblast (BALB/3T3) cell line; conditions: read-out: IC50 against normal BALB/3T3; cited from earlier work
[10] = in vitro cytotoxicity, SRB assay, normal BALB/3T3; type: cell-based, mouse; conditions: mouse, BALB/3T3 normal mouse fibroblast cells; compound concentration 10 μg/mL; normal cell line
Method: as §2

[11] = tested on: colorectal adenoma (LoVo) cell line; assay: in vitro cytotoxicity, SRB assay, LoVo; type: cell-based; conditions: concentration of 10 μg/mL
Method: as §2

[12] = compound concentration 10 μg/mL

Molecule | log P [1] | turnover number (TON) [2] | IC50 against MV-4-11 ([3]; MV-4-11 cell line) [µg/mL] | Cell viability [%] MV-4-11 [3, 12] [%] | concentration of unreacted GSH remaining [4] [µM] | α-helical structure of HSA under the influence of complex [5] [%] | decrease of melting temperature (Tm) of CT-DNA (CT-DNA) | HSA binding constant [6] | Cell viability [%] BALB/3T3 [8] [%] | also measured
[(η^5-Cp)IrCl(py2CO)]PF6 [complex 2] | −1.14 ± 0.06 | 3.3 | 40.2 | 68 | 37 | 52 | approximately 0.5 °C | 1.52 × 10^5 | 100 | inhibition of cell proliferation, MCF-7 [7]: 3.7%
[(η^6-p-cymene)RuCl(2,2′-PyBIm)]PF6 |  |  |  |  |  |  |  |  |  | IC50 [9]: 43.7 µM
O=C(c1ccccn1)c1ccccn1 [py2CO, di-2-pyridylketone, reference compound] |  |  |  |  |  |  |  |  |  | IC50 ([3]; Homo sapiens, MV4-11, MV-4-11 cell line, read-out: IC50 against MV-4-11): 62.9 µg/mL (≈ 341 µM); viability at 10 µg/mL ([3]; Homo sapiens, MV4-11, compound concentration 10 μg/mL): 98%; viability at 10 µg/mL [10]: 95.5%
[(η^6-p-cymene)RuCl(py2CO)]PF6 [complex 1] | −1.44 ± 0.11 |  | 49.8 | 83 |  | 51 |  | 3.22 × 10^5 |  | inhibition of cell proliferation, LoVo [11]: 1.4%
NH4[IrCl4(py2CO)]·H2O [complex 3] | −0.30 ± 0.05 | 4.8 | 35.8 ± 13.9 | 68 | 37 | 55 | ~8.5 °C | 6.54 × 10^4 | 98.6 | toxic effect against normal BALB/3T3 ([8]; result in words): without a toxic effect; also recorded: without any toxic effect
N.N.[Cl][Pt][Cl] [cisplatin, reference compound] |  |  | 0.27 |  |  |  |  |  |  | 
